Experimental data published in patent publication US20210346359A1, “Use of CFTR Modulators For Treating Cerebrovascular Conditions” (Qanatpharma AG, priority 2018, published 2021).
Entries after “also recorded” stand apart in the source; their conditions may differ.

Legend:
mice with heart failure = experiment: MRI T2 mapping of cerebral edema in heart failure mice; assay type: in vivo, mouse; conditions: HF mice, 3 mg/kg daily for 2 days
Protocol: Magnetic resonance imaging-based edema measurement: Edema was assessed by quantitative T2 mapping (12), using a 7 Tesla micro-MRI system (Bruker Corporation Biospec 70/30 USR; Ettlingen, Germany). The T2 mapping acquisition generated quantitative T2 maps in 9 contiguous 2D axial slices, with 1 mm thickness, covering the volume from the fore-brain through to the hind-brain. T2 maps were generated from T2-weighted images at echo times from 12 to 384 ms, using in-line Bruker software, via linear regression of the logarithmically-transformed signal magnitudes and the echo times on a per voxel basis. The T2 values were extracted using MIPAV software, using manually drawn regions-of-interest placed within the fore-, middle- and hind-brain T2 maps.

CFTR = CFTR (Mus musculus, UniProt P26361); experiment: FACS-based FITC-S1P uptake in vascular smooth muscle cells; assay type: cell-based; set-up: mesenteric artery segments were isolated, cut into small pieces and digested with trypsin, collagenase and elastase; endogenous in cells; host or cells: primary mesenteric artery vascular smooth muscle cells; conditions: primary vascular smooth muscle cells; 48 h TNF 10 ng/ml + C18 6 μmol/L for last 24 h
Sequence of CFTR (P26361 whole entry): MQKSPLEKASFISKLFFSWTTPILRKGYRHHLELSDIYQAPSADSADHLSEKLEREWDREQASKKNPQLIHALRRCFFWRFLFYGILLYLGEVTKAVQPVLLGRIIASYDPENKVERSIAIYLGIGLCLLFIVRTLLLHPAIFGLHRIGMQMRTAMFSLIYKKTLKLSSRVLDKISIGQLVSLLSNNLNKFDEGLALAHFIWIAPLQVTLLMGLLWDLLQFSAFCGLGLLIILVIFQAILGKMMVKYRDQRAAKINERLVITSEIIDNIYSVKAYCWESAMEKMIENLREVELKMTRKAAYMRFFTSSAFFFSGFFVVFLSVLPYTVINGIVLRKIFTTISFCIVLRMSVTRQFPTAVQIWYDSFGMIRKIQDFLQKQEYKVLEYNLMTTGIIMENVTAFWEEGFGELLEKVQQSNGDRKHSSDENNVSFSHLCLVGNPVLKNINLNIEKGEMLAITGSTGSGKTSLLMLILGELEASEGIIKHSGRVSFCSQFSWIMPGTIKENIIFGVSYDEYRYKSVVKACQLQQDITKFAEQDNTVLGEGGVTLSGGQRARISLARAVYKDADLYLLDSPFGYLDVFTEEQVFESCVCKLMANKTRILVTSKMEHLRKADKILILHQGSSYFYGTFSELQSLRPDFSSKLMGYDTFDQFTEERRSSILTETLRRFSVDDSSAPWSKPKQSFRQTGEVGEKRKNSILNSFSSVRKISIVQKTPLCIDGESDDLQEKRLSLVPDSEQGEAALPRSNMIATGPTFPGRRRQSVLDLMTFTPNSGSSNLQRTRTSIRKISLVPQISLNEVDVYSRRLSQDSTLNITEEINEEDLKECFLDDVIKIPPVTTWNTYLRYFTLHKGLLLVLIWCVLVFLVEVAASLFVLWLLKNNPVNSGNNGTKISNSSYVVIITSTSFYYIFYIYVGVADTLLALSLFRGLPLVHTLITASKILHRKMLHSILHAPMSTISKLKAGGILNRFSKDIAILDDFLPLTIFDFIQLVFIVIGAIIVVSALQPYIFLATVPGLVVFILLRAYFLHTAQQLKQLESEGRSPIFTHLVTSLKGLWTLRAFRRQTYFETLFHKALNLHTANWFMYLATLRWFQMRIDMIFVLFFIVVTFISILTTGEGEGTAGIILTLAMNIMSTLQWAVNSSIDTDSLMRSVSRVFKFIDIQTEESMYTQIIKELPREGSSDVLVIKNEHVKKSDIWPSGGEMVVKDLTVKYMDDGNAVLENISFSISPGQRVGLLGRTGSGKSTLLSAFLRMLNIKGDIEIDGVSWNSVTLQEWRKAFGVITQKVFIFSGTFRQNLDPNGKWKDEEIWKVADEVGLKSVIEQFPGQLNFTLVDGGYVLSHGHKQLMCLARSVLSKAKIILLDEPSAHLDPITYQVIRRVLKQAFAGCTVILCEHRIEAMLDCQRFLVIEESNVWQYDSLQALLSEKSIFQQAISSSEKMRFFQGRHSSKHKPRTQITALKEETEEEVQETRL
Protocol: Procedures for isolating and culturing mesenteric artery smooth muscle cells were carried out as described in (10). Briefly, mesenteric artery segments were isolated, cut into small pieces and digested with trypsin, collagenase and elastase. The resulting cell suspension was washed several times in phosphate-buffered saline and plated in Dulbecco's Modified Eagle Medium (DMEM) culture media containing 10% fetal bovine serum and 1% penicillin-streptomycin. Cell cultures were maintained at 37° C. with 5% CO2 and split at […] cells seeding density. Baby hamster kidney fibroblast cells stably expressing wild-type human CFTR (10,17) were maintained in DMEM/F12 media containing 5% fetal bovine serum and 250 μmol/L methotrexate (which activates the CFTR transgene promoter). Cells were maintained under standard cell culture conditions at 37° C. with 5% CO2.
As previously described (10), cell monolayers (treated or untreated) were incubated with 1 μmol/L S1P-FITC for 60 minutes; the cells were then detached by trypsinization, washed twice with ice-cold PBS, filtered through a 35 μm cell strainer and analyzed using the Becton-Dickinson FACS Canto operated by FACS DIVA version 6.1 software. […] The analysis procedure determined the mean fluorescence intensity (arbitrary units) of each cell population, which is a measure of uptake.

O=C(Nc1ncc(C(c2ccccc2Cl)N2CCC(O)C2)s1)C1(c2ccc3c(c2)OCO3)CC1 (centres unmarked) [C18, 1-(benzo[d][1,3]dioxol-5-yl)-N-(5-((2-chlorophenyl)(3-hydroxypyrrolidin-1-yl)methyl)thiazol-2-yl)cyclopropanecarboxamide]
cerebral edema (T2 relaxation times) (mice with heart failure): neither HF nor C18 treatment in the context of HF induces evident edema; also recorded: does not induce edema; also recorded: Neither HF nor C18 treatment in HF mice induces an alteration | FITC-labeled sphingosine-1-phosphate uptake after TNF (CFTR): fully restores; also recorded: normalization
